Test results reported in patent publication US12281118B2, “Nitrogen-containing fused heterocyclic SHP2 inhibitor compound, preparation method, and use” (SHANGHAI RINGENE BIOPHARMA CO., LTD., priority 2018, dated 2025).

Tests used:
CYP1A2 = CYP1A2 (Homo sapiens (Human), UniProt P05177); assay: CYP direct inhibition test (DI test) in human liver microsomes; assay type: in vitro ADME
Method: Direct inhibition test (DI test): Incubating 100 μL of human liver microsomes (final concentration 0.2 mg/mL) containing NADPH (final concentration 1 mM), 10 μM of compound, a positive inhibitor cocktail (ketoconazole 10 μM, quinidine 10 μM, sulfaphenazole 100 μM, a-naphthoflavone 10 μM, and tranylcypromine 1,000 μM), a negative control (BPS containing 0.1% dimethyl sulfoxide) and a mixed probe substrate (midazolam 10 μM, testosterone 100 μM, dextromethorphan 10 μM, diclofenac 20 μM, phenacetin 100 μM, and mephenytoin 100 μM) for direct inhibition, and terminating the reaction after 20 min of the incubation. Calculating the relative enzyme activity by measuring the relative production of metabolites.

SHP2 enzyme = SHP2 enzyme (Homo sapiens (Human), UniProt Q06124); assay: Inhibitory activity against SHP2 enzyme (Caliper conversion rate); assay type: biochemical; details: read-out: SHP2 Enzyme Inhibition IC50 Value
Method: (1) Preparing 1×Reaction Buffer according to the BPS Biosciences' Instructions for Use of the SHP2 enzyme. (2) Preparing a compound concentration gradient: Test the test compound at 10 μM under 3× dilution for 10 concentrations, diluting to a 100% dimethyl sulfoxide solution at a 100× final concentration in a 384-well plate, and diluting the compound with Precision 4× for 10 concentrations. Transferring 250 nL of the compound at the 100× final concentration to a target plate OptiPlate-384F using a dispenser Echo 550. […] (3) Preparing the activation peptide solution at a 5× final concentration with the 1×Reaction Buffer, adding 5 μL of the solution to a reaction plate, respectively, and centrifuging at 1000 rpm for 1 min. (4) Preparing an enzyme solution at a 2.5× final concentration with the 1×Reaction Buffer, adding 10 μL of the solution to the reaction plate, respectively, centrifuging at 1000 rpm for 1 min, and incubating at room temperature for 60 min. (5) Preparing a substrate peptide solution at a 2.5× final concentration with the 1×Reaction Buffer, centrifuging at 1000 rpm for 1 min, and incubating at room temperature for 30 min. (6) Adding 30 μL of stop test solution to stop the reaction, centrifuging at 1000 rpm for […], and mixing well by shaking. (7) Reading the conversion rate with a Caliper EZ Reader. (7) Data analysis:
Wherein: Conversion %/_sample is the reading of a conversion rate of a sample; Conversion %_min: mean of negative control wells, which represents the reading of a conversion rate in absence of enzyme activity wells; Conversion %_max: mean of a ratio of positive control wells, which represents the reading of a conversion rate in absence of compound inhibition wells.

MV4-11 leukemia cells = assay: Inhibition of proliferation of MV4-11 leukemia cells (CellTiter-Glo, 72 h); assay type: cell-based; details: Homo sapiens, MV4-11, 72 h, read-out: IC50 value, MV4-11 cell proliferation
Method: Specific experimental procedures: 1) At Day 0: Inoculating trypsin-digested cells in 96-well plate and suspending the plate in cell culture medium; measure cell density using an automatic cell counter, diluting the cells with the culture medium to appropriate density, adding 100 μl of cell suspension in the 96-well plate, and incubating a cell-free medium as a control well in a cell incubator with […] at 37° C. overnight; 2) Day 1: Treating test compounds of the cells using a drug for a total of 8 concentrations, and diluting at a 3× concentration, wherein 10 μM is a starting test concentration of the test compounds. […] IC50 values are obtained by a four-parameter regression using software attached to the plate reader (the specific results are shown in Table 2).

SNU16 (gastric cancer) = assay: Cell proliferation inhibition, MTT; assay type: cell-based; details: Homo sapiens; SNU 16
Method: (§1) Incubating cells such as KYSE520 (oesophageal cancer cells), H358 (lung cancer cells), Colo-205 (colorectal cancer cells), MiaPaca-2 (pancreas cancer cells), MOLM 13 (leukemia cells), NCI—H 1666 (lung cancer cells), NCI—H 508 (lung cancer), KATO III (gastric cancer), HEK 293A (normal cells), H3255 (lung cancer), H1975 (lung cancer), PC-9 (lung cancer), A549 (lung cancer), SNU16 (gastric cancer), and H1299 (lung cancer) in a 96-well plate at 100 µl/well and 20,000 cells/mL, and supplementing 10% fetal bovine serum and 1% penicillin/streptomycin sulfate. With 0.5% dimethyl sulfoxide as a blank control, treating the cells in a solution of the test compounds under 3× dilution at an initial concentration of 10 μM in eight gradients, and incubating the plate in an incubator with 5% CO2 for a certain period of time. At the end of the incubation, adding 10 μL of an MTT stock solution (5 mg/mL) to each well. Incubating the plates at 37° C. for 4 hours, and then removing the culture medium. Adding the dimethyl sulfoxide (100 μL) to each well, and then shaking well. Measuring the absorbance of a formazan product at 570 nm on a Thermo Scientific Varioskan Flash multi-mode reader. Fitting dose-response data to a three-parameter nonlinear regression model using GraphPad Prism 6.0 software to obtain IC50 values.

[1] = system: KYSE520 (oesophageal cancer cells); assay: Cell proliferation inhibition, MTT; assay type: cell-based; details: Homo sapiens, KYSE-520
Method: as §1

H358 (lung cancer cells) = assay: Cell proliferation inhibition, MTT; assay type: cell-based; details: Homo sapiens, NCI-H358
Method: as §1

[2] = system: NCI-H1666 (lung cancer cells); assay: Cell proliferation inhibition, MTT; assay type: cell-based; details: Homo sapiens
Method: as §1

MOLM 13 (leukemia cells) = assay: Cell proliferation inhibition, MTT; assay type: cell-based; details: Homo sapiens
Method: as §1

in vitro = in vitro ADME; details: 1 μM compound
Method: Metabolic stability test: Incubating 150 μL of liver microsomes (final concentration 0.5 mg/mL) containing NADPH (final concentration 1 mM), 1 μM of test compound and a positive control midazolam or a negative control atenolol for metabolic stability, terminating the reaction with acetonitrile containing tinidazole at 0 min, 5 min, 10 min and 30 min, respectively, vortexing for 10 min, centrifuging at 15,000 rmp for 10 min, and injecting 50 μL of supernatant into a 96-well plate. Calculating the metabolic stability of the compounds by determining the relative reduction of a parent drug.

SHP1 = SHP1 (Homo sapiens (Human), UniProt P29350); assay: Inhibitory activity against different phosphatases; assay type: biochemical; details: read-out: IC50 against phosphatase SHP1
Method: (§2) Allowing compound solutions (10 μM, 3× dilution at eight gradients) of examples reacted with phosphatases such as SHP1, LMW-PTP, LYP, MKP3, PTP1B, PTPN2, PTPN6, VHR, CDC25A, PTPRR, etc. according to a similar method shown in Test Example 1 to test the inhibitory activity of the compounds on the phosphatases described above.

PTP1B = PTP1B (Homo sapiens (Human), UniProt P18031); assay: Inhibitory activity against different phosphatases; assay type: biochemical; details: read-out: IC50 against phosphatase PTP1B
Method: as §2

[3] = monkey, monkeys liver microsomes

Sequence of PTP1B (P18031 whole entry, species assumed): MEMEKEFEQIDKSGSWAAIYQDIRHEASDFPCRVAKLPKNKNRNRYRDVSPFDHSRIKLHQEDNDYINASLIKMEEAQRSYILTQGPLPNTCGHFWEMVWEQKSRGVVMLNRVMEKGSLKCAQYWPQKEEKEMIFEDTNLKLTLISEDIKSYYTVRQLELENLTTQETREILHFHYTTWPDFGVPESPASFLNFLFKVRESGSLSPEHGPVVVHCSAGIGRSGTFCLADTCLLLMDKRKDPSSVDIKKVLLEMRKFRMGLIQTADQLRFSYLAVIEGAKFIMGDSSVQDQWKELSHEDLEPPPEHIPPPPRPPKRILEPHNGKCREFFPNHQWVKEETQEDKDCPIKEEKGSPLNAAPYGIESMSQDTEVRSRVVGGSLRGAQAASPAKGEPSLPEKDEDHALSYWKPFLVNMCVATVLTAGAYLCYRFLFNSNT
Sequence of CYP1A2 (P05177 whole entry): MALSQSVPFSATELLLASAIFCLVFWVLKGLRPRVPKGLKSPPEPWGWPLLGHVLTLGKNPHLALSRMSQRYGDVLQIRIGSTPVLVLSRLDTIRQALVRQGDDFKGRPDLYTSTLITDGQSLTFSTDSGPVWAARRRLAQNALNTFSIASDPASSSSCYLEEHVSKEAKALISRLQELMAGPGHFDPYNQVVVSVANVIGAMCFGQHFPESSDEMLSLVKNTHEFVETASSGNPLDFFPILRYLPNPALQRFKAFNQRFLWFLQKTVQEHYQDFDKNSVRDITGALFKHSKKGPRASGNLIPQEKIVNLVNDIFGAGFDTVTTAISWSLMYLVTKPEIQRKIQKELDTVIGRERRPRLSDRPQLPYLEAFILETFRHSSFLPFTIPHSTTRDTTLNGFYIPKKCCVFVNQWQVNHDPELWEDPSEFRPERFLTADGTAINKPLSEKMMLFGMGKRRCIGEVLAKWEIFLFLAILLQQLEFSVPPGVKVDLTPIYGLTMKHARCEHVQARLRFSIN
Sequence of SHP1 (P29350 whole entry): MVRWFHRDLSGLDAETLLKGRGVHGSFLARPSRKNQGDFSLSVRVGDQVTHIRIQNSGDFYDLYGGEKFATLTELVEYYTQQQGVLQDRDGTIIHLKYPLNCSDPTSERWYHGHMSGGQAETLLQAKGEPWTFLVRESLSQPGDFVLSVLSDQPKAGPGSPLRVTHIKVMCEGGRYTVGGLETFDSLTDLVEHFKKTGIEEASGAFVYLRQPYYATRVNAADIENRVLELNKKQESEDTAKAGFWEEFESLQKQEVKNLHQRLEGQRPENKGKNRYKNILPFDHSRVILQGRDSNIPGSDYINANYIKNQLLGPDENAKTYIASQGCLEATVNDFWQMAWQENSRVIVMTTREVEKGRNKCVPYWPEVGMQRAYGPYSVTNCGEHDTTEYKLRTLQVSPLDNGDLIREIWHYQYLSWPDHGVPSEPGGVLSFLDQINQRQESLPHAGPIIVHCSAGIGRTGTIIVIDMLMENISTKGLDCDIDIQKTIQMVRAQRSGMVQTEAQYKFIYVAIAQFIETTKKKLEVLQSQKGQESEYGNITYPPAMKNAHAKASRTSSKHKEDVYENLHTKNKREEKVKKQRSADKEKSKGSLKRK
Sequence of SHP2 enzyme (Q06124 whole entry): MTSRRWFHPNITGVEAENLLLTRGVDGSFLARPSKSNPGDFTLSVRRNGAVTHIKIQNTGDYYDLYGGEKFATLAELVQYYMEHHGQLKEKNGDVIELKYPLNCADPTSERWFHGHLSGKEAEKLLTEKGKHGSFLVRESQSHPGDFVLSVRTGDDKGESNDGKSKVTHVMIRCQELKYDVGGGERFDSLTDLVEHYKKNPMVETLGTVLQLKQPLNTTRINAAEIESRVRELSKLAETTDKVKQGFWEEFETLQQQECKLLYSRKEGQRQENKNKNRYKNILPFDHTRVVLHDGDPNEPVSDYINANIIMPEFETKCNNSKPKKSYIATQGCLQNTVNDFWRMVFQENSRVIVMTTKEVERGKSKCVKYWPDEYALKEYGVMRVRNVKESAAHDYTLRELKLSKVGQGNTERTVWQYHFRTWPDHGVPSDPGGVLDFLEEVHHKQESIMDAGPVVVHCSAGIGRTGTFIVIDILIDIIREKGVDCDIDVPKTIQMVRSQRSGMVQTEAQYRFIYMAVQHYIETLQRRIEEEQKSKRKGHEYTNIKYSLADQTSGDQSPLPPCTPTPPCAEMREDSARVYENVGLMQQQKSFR

| Compound | IC50 (CYP1A2) [nM] | IC50 (SHP2 enzyme) [nM] | IC50 (MV4-11 leukemia cells) [nM] | IC50 (SNU16 (gastric cancer)) [nM] | IC50 [1] [nM] | IC50 (H358 (lung cancer cells)) [nM] | IC50 [2] [nM] | IC50 (MOLM 13 (leukemia cells)) [nM] | half-life at 1 μM (in vitro; dog, dogs liver microsomes) [h] | half-life at 1 μM (in vitro; human liver microsomes) [h] | half-life at 1 μM (in vitro; [3]) [h] | half-life at 1 μM (in vitro; mouse, mice liver microsomes) [h] | half-life at 1 μM (in vitro; rat, rats liver microsomes) [h] | IC50 (SHP1) [nM] | IC50 (PTP1B) [nM] |
| --- | --- | --- | --- | --- | --- | --- | --- | --- | --- | --- | --- | --- | --- | --- | --- |
| Cc1nc(N2CCC3(CC2)Cc2ccccc2[C@H]3N)n2ccnc2c1Sc1ccnc(N)c1Cl [Example 1, (S)-1′-(8-((2-amino-3-chloropyridin-4-yl)thio)-7-methylimidazo [1,2-c]pyrimidin-5-yl)-1,3-dihydrospiro [indene-2,4′-piperidine]-1-amine] | > 25000 | 4.4 | 11 | < 1000 | < 100 | < 100 | < 100 | < 100 | > 1 | > 1 | > 1 | > 1 | > 1 | > 500 | > 500 |
| Nc1nccc(Sc2c(N)nc(N3CCC4(CC3)Cc3ccccc3[C@H]4N)n3ccnc23)c1Cl [Example 4, (S)-1′-(7-amino-8-((2-amino-3-chloropyridin-4-yl)thio)imidazo [1,2-c]pyrimidin-5-yl)-1,3-dihydrospiro [indene-2,4′-piperidine]-1-amine] | > 25000 | 1.9 | 4.7 | < 1000 | < 100 | < 100 | < 100 | < 100 | > 1 | > 1 | > 1 | > 1 | > 1 | > 500 | > 500 |
